Numbers after ± are expanded uncertainties.
Conditions: Liquid

SMILES	vapor or sublimation pressure (313.15 K) [kPa]	vapor or sublimation pressure (323.15 K) [kPa]	vapor or sublimation pressure (333.15 K) [kPa]	vapor or sublimation pressure (338.15 K) [kPa]
CCC(C)O (stereo not given) [butan-2-ol]	5.83 ± 0.18	10.48 ± 0.24	18.2 ± 0.33	
CCCC(C)O (stereo not given) [pentan-2-ol]	2.13 ± 0.14	4.16 ± 0.16	7.57 ± 0.2	9.99 ± 0.23
CCCCCC [hexane]	37.04 ± 0.55	53.91 ± 0.74	76.32 ± 1	89.92 ± 1.2
CCC(C)(C)O [2-methylbutan-2-ol]	5.69 ± 0.24	10.41 ± 0.32	17.87 ± 0.43	22.87 ± 0.51

Source: the NIST ThermoML archive (doi:10.1021/je900530f)
